Experimental data reported in US7033829B2, “Method to inhibit cell growth using oligonucleotides” (Trustees of Boston University, priority 2000, dated 2006).
Oligonucleotides are written 5' to 3', each unit as a sugar letter and its base; * is a phosphorothioate linkage, no mark a phosphodiester; rarer units and linkages stand in square brackets, end groups in braces. Plain capitals give the bases only. d = 2'-deoxy (DNA); {P} = phosphate

Assays:
Assay type in all cases: cell-based, human
[1] = system: E2F1, p73, Mart-1, tyrosinase, TRP-1 and gp-100; assay: Western blot of MM-AN melanoma cells
Description: Proteins were analyzed by denaturing polyacrylamide gel electrophoresis (SDS-PAGE), using 10% polyacrylamide, and western blot analysis was done with an E2F1-specific monoclonal antibody (KH95 Santa Cruz Biotechnology, Santa Cruz, Calif.), and p73 analyzed using a polyclonal antibody (AB-4 from Oncogene Research Products, San Diego, Calif.). […] In order to determine the contribution of p73 to cell death, MM-AN melanoma cells were stably transfected with a dominant negative p73 (p73DN) (Irwin et al., Nature 402:645–648) construct or empty vector as a control (p73^DN-containing vector a gift from Dr. William Kaelin, Dana Farber Institute, Boston) and paired cultures were supplemented with 40 μM 11mer-1 or diluent alone, then harvested at 72 hours for FACS analysis. […] The above-mentioned differentiation markers are expressed in normal human melanocytes. It appears that the loss of expression of these antigens is a mechanism that a subset of human melanomas uses to escape immunosurveillance defenses. Several peptides from these antigens are targets of tumor infiltrating cytotoxic lymphocytes. Encouraging results have been obtained in vivo with different vaccination strategies using antigenic peptides from the above antigens.

[2] = system: serine 15-phosphorylated p53, total p53, E2F1; assay: Western blot of p53 serine 15 phosphorylation and E2F1 in normal control fibroblasts; conditions: 40 μM
Description: Because the serine 15 site on p53 is known to be phosphorylated in an ATM-dependent manner after exposure to ionizing radiation (IR), we wished to examine the role of ATM in E2F1 induction and p53 serine 15 phosphorylation in response to the 11 mer-1. Fibroblasts from a patient with ataxia telangiectasia (AT) known to lack functional ATM protein, and age-matched normal control fibroblasts (N) were treated with either diluent, 40 μM 11mer-1, sham irradiation or IR (10 Gy). Cells were collected 3 hours (sham or IR) or 48 hours (diluent, 11mer-1) for western blot analysis to detect serine 15-phosphorylated p53 and total p53. In normal fibroblasts, the 11mer-1 induced a 10–15 fold increase in the level p53 phosphorylation on serine 15 compared to diluent-treated controls.

p95/Nbs1 = assay: Modification / phosphorylation of p95/Nbs1 (western blot)
Description: Cells were plated at a density of 180,000 cells/ml in RPMI 1640 medium supplemented with 3% FBS. Cells were treated with 40 μM of either of the oligonucleotides for 72 hours. Cells were then collected, washed and fixed for 30 minutes in 4% paraformaldehyde and then permeabilized with 0.1% Triton X-100 for 2 minutes. The TUNEL assay was carried out with components and instructions of the In Situ Cell Death Detection Kit using fluorescein-labeled dUTP from Boehringer Mannheim. TUNEL-positive cells were detected by FACS analysis and confocal microscopy. Cellular Uptake of Oligonucleotides For confocal analysis, Jurkat cells were plated on Permanox chamber slides (Lab-Tek, Naperville, Ill.) and treated for 4 hours with fluorescein phosphoramidite (FAM)-labeled oligonucleotides (Research Genetics, Inc., Huntsville, Ala.). […] Uptake of the oligonucleotides was assessed in 5–10 μm sections with a Carl Zeiss LSM 510 confocal laser microscope. […] Fluorescence was measured on the FL-1 channel. […] Antibody Ab-6 (DO-1 clone, Oncogene Research Products, Cambridge, Mass.) detected p53; antibody KH95 (Santa Cruz Biotechnology, Inc., Santa Cruz, Calif.) detected E2F1; antibody Ab-4 (Oncogene Research products) detected p73. Phospho-p53 (serine 15) was detected using the #9284 polyclonal antibody and phospho-p95/Nbs1 (serine 343) was detected by a phospho-p95/Nbs1-specific polyclonal antibody, both antibodies from Cell Signaling Technology (Beverly, Mass.). p95/Nbs1 antibody (#NB-100-143, Novus Biologicals, Littleton, Colo.) and an actin antibody (I-19, Santa Cruz Biotechnology, Santa Cruz, Calif.) were also used. […] After the indicated times, total protein was collected and analyzed by 8% PAGE and western blot using a polyclonal antibody to p95/Nbs1 (#NB-100-143, Novus Biologicals, Littleton, Colo.). […] Telomere length was determined essentially as described by van Steensel and de Lange (van Steensel, B. and T. de Lange. 1997, Nature 385: 740–743) using the Telo TAGGG Telomere Length Assay from Roche Molecular Biochemicals (Indianapolis, Ind.) and the protocol supplied by the manufacturer. […]

[3] = system: squamous carcinoma line SCC12F; assay: Cell yields of UVA-irradiated SCC12F cells after pretreatment; conditions: 100 μM 3 days pretreatment; 10 J/cm^2 UVA
Description: Cells from the well differentiated squamous carcinoma line SCC12F (gift of Dr. James Rheinwald, Harvard University) were treated with 100 μM pTpT or diluent as control for 3 days. Then cells were re-plated in medium lacking pTpT and were sham- or UV-irradiated with 10 J/cm^2 UVA (Sellas Sunlight UVA lamp). Cell yields were determined at different intervals after UV irradiation.

| Substance | induction of E2F1 and p73 ([1]; 40 μM) | differentiation markers Mart-1, tyrosinase, TRP-1 and gp-100 ([1]; 48–72 hours after treatment) | E2F1 levels [2] | increase in p53 phosphorylation on serine 15 compared to diluent ([2]; 48 hours) | level of total p53 ([2]; young adult donor, 48 hours) | shift in p95/Nbs1 migration (p95/Nbs1; Jurkat cells, 48, 72 and 96 hours) | shift in p95/Nbs1 migration (p95/Nbs1; SCC12F cells) | phosphorylation of p95/Nbs1 (phospho-specific antibody) (p95/Nbs1; fibroblasts) | yields of UVA irradiated cells [3] |
| --- | --- | --- | --- | --- | --- | --- | --- | --- | --- |
| pGTTAGGGTTAG (DNA {P}-dGdTdTdAdGdGdGdTdTdAdG) [SEQ ID NO: 5] | the same pattern of induction for E2F1 and p73 as observed for Jurkat cells | upregulated | induced E2F1 levels | 10–15 fold | minimally induced | detects such a shift in p95/Nbs1 migration | respond identically | phosphorylation of p95/Nbs1 is induced | – |
| thymidine dinucleotide [pTpT] | – | – | – | – | – | – | – | – | increased the yields of UVA irradiated cells |
